The numbers were not newly measured in US20250120988A1, “SMALL MOLECULE COMPOUND FOR TREATING ISCHEMIC STROKE, ITS PREPARATION METHOD, AND APPLICATION” (SHANGHAI SIXTH PEOPLE'S HOSPITAL, priority 2023, published 2025), which cites them from elsewhere.

The term IC50 denotes the midpoint of a concentration-inhibition curve.

For data set [1] the following is noted: cited from earlier work.
For data set [2], the system named is ischemic stroke patients. To be noted: clinical trials; cited from earlier work.
For data set [3], the system named is NMDARs. The conditions noted are these: competitive antagonist of NMDARs; read-out: half-blocking dose (IC50) on NMDARs; cited from earlier work.

For `O=C(O)[C@@H]1C[C@H](CP(=O)(O)O)CCN1` (racemic) [Selfotel], in data set [1], the solubility in water entry is on record as “highly soluble in water”. In addition, in data set [2], the “patient mortality compared to the control group” value is on record as “did not significantly reduce patient mortality” and the “psychiatric symptoms in patients” value is “led to various psychiatric symptoms in patients”. The IC50 in data set [3] is under 1000 nM.
